Experimental data reported in patent publication US6159988A, “Arylcycloalkyl derivatives, their production and their use” (Hoeschst Aktiengesellschaft, priority 1992, dated 2000).
Structures can show the parent of a compound that is named as a salt.

Legend:
IL-1 = IL-1 release inhibition (Table 2); assay type: cell-based, human
Protocol: 10 ml of human blood were carefully drawn from the antecubital vein using a syringe containing 1 ml of a solution of 3.8% sodium citrate. After dilution with 10 ml PM 16 (Serva, Heidelberg, FRG) and underlayering with 15 ml Lymphoprep® (Molter GmbH), the sample was centrifuged at 400×g for 40 min at 20° C. The mononuclear cells forming a white ring between lymphoprep and plasma were carefully aspirated by a syringe, diluted 1:1 with PM 16 and centrifuged again at 400×g for 10 min. […] was washed with 10 ml RPMI 1640 (Gibco, Berlin, FRG), containing additionally 300 mg/l L-glutamine, 25 mmol/l […] HEPES, 100 μg/ml streptomycin and 100 μg/ml penicillin. Finally, using a Coulter counter IT, the cell suspension was adjusted to 5×10^6 cells/ml. The cells consist of approx. 90% lymphocytes and 10% monocytes.
10 μl DMSO/water (1:10, v/v), containing the test compound, was added to 480 μl of a suspension, containing 5×10^6 mononuclear cells. The synthesis of IL-1 was stimulated by the addition of 10 μl DSMO/water (1:10, v/v), containing 0,5 μg LPS (Salmonella abortus equi, Sigma). After incubation at 37° C. for 18 hours, the samples were cooled to 0° C. and centrifuged for 1 min. in a table centrifuge. 25 μl aliquots of the supernatant were assayed for IL-1 alpha activity using a commercially available 125-J-IL-1-alpha radioimmunoassay Kit (Amersham/UK), and for IL-1 beta in a similar way using the specific test kit. Control experiments were performed as described without test compound, or with cycloheximide as a test compound.

[1] = system: adjuvant arthritis in rats; experiment: Adjuvant-induced arthritis in rats; assay type: in vivo, rat (female Wistar); conditions: 30 mg/kg orally once every day for 12 days, compared to control
[2] = system: Cotton Pellet Granuloma in Rats; experiment: Inhibition of carrageenin cotton pellet granuloma in rats; assay type: in vivo, rat (Wistar); conditions: 30 mg/kg, p.o. × 5
Protocol: The implantation of carrageenin impregnated cotton pellets results in production of large, well-defined granuloma which are easily dissected. The potency of the compounds are assessed by measuring the reduction in granuloma tissue formation.
Cotton wool pellets weighing 40 mg were used for sterilization.
Pellets were dried overnight under a lamp. The pellets in the weight range of 42-44 mg were selected.
Rats (in groups of 6, male or female, Charles River, Wistar, weighing 140-150 g) were anaesthetized with ether. The back was shaved and cleaned; swabbed with alcohol and one centimeter incision was made in the lower midback. A small channel was made bilaterally using a blunt forceps and one cotton pellet placed in each channel. Air from the incision was removed and the wound was stitched. […] Three hours after the administration of the last dose on day 7, animals were sacrificed. The pellets were removed by cutting the skin along the dorsal midline and peeling the skin away from the bodywall in both lateral directions. The pellets were weighed and then placed in drying oven at 140° C. overnight. The dry weights were then recorded and the amount of granuloma was assessed by subtracting the original pellet weight from wet weights and dry weights. The data was evaluated using the difference of left and right weights (cf. Table 4).

[3] = system: experimental allergic encephalomyelitis (EAE) in guinea pigs; experiment: Experimental allergic encephalomyelitis (EAE) in guinea pigs; assay type: in vivo, guinea pig; conditions: 100 mg/kg p.o. once daily for 10 days
Source text: This method permits the evaluation of the potential of the test compound in preventing the development of an autoimmune disorder leading to demyelination in the guinea pigs which can be equated to multiple sclerosis disease in humans. EAE is a reproducible chronic inflammatory autoimmune disease of the central nervous system in which an animal is immunized with either a homologous or heterologous extract of the whole brain and spinal cord, which contains the basic myelin protein together with Freund's Complete Adjuvant (FCA). A pathological condition would set in during ten to twenty days following immunization, which is characterized by weight loss, abnormal gait, mild to severe ataxia, paraparesis and moribund state leading to death. The potential of the test compounds to prevent this autoimmune condition was evaluated by observing the severity of the disease and mortality in comparison with untreated and hydrocortisone (standard drug) treated animals.
Guinea pigs (200-300 g) were randomly distributed into groups of 10 each after receiving 0.075 ml of it brain and spinal cord extract in FCA intradermally on the back and 0.050 ml intrapedally in one hind paw. Compound 9 of Table 2 was administered orally at 3 mg/kg once daily for 10 days. The standard compound was administered 100 mg/kg p.o. once daily for 10 days. The weights of the animals were noted every day. Eight days after the induction of the disease, the animals were rated regularly for the severity of the disease and mortality was monitored.

[4] = Homo sapiens, read-out: IL-1 Rel. Inhib.

COc1cc(OC)c(C2CCCCC2OC(=O)[C@H](C)N)c(O)c1C(=O)/C=C/c1cccc(Br)c1 (mixture of isomers) [Compound 7 of Table 2, trans-(+/-)-2-[4,6-Dimethoxy-2-hydroxy-3-(3-(3-bromophenyl)prop-2-(E)-enoyl)phenyl]cyclohexyl-2-(S)-amino propanoate]
inhibition at 1 µM (IL-1; [4]): 35%

COc1cc(OC)c([C@@H]2CCCC[C@H]2OC(=O)CN(C)C)c(O)c1C(=O)/C=C/c1cccc(Br)c1 (relative stereo) [Compound 2 of Table 2]
inhibition at 17 µM (IL-1; [4]): 50%

COc1cc(OC)c([C@H]2CCCC[C@H]2O)c(O)c1C(=O)/C=C/c1cccc(Br)c1 (relative stereo) [Compound 11 of Table 2, cis-(+/-)-2-[4,6-Dimethoxy-2-hydroxy-3-(3-(3-bromophenyl))prop-2-(E)-enoyl]phenylcyclohexanol]
inhibition at 10.8 µM (IL-1; Homo sapiens, 10.8 μM, read-out: IL-1 Rel. Inhib.): 90%

COc1cc(OC)c([C@H]2CCCC[C@@H]2OC(=O)CN)c(O)c1C(=O)/C=C/c1cccc(Br)c1 [Compound 6 of Table 2, trans-(+)-2-[4,6-Dimethoxy-2-hydroxy-3-(3-(3-bromophenyl)prop-2-(E)-enoyl)phenyl]cyclohexyl-2-amino acetate hydrochloride monohydrate]
inhibition at 1 µM (IL-1; [4]): 88%

COc1cc(OC)c([C@@H]2CCCC[C@H]2O)c(O)c1C(=O)/C=C/c1cccc(Br)c1 (relative stereo) [Compound 6 of Table 1]
reduction in the uninjected paw volume [1]: very slight reduction

COc1cc(OC)c([C@@H]2CCCC[C@H]2OC(C)=O)c(O)c1C(=O)/C=C/c1cccc(Br)c1 (relative stereo) [Compound 1 of Table 2]
inhibition at 10 µM (IL-1; [4]): 41%

COc1cc(OC)c([C@@H]2CCCC[C@H]2O)c(O)c1C(=O)/C=C/c1cccc(C)c1 (relative stereo) [Compound 20 of Table 2]
inhibition at 10 µM (IL-1; [4]): 49%

COc1ccc(C(=O)/C=C/c2cccc(Br)c2)c(O)c1[C@@H]1CCCC[C@H]1O (racemic) [Compound 16 of Table 2, trans-(+/-)-2-[6-Methoxy-2-hydroxy-3-(3-(3-bromophenyl))prop-2-(E)-enoyl]phenylcyclohexanol]
IL-1 Rel. Inhib. (IL-1; 11.6 μM): 81%

COc1cc(OC)c([C@@H]2CCCC[C@H]2O)c(O)c1C(=O)/C=C/c1cccc(Br)c1 [Compound 14 of Table 2, trans-(-)-2-[4,6-Dimethoxy-2-hydroxy-3-(3-(3-bromophenyl))prop-2-(E)-enoyl]phenylcyclohexanol]
inhibition at 0.3 µM (IL-1; [4]): 50%

COc1cc(OC)c([C@@H]2CCCC[C@H]2O)c(O)c1C(=O)CCc1cccc(Br)c1 (relative stereo) [Compound 12 of Table 2]
inhibition at 10.5 µM (IL-1; Homo sapiens, 10.5 μM, read-out: IL-1 Rel. Inhib.): 26%

COc1cc(OC)c([C@H]2CCCC[C@@H]2O)c(O)c1C(=O)/C=C/c1cccc(Br)c1 [Compound 15 of Table 2, trans-(+)-2-[4,6-Dimethoxy-2-hydroxy-3-(3-(3-bromophenyl))prop-2-(E)-enoyl]phenylcyclohexanol]
inhibition at 0.3 µM (IL-1; [4]): 50%

COc1cc(OC)c([C@@H]2CCCC[C@H]2OC(=O)CN)c(O)c1C(=O)/C=C/c1cccc(Br)c1 [Compound 5 of Table 2, trans-(-)-2-[4,6-Dimethoxy-2-hydroxy-3-(3-(3-bromophenyl)prop-2-(E)-enoyl)phenyl]cyclohexyl-2-amino acetate hydrochloride monohydrate]
inhibition at 1 µM (IL-1; [4]): 95%

C[C@]12CCC(=O)C=C1CC[C@@H]1[C@@H]2[C@@H](O)C[C@@]2(C)[C@H]1CC[C@]2(O)C(=O)CO [Hydrocortisone, reference compound]
% Inhibition of granuloma, Dry wt. [2]: 37.5%
% Inhibition of granuloma, Wet wt. [2]: 20.5%
reduction in the mortality [3]: 21%

COc1ccc(CCC(=O)c2c(OC)cc(OC)c([C@@H]3CCCC[C@H]3OC(=O)CN)c2O)cc1OC (relative stereo) [Compound 19 of Table 2, trans-(+/-)-1-[4,6-Dimethoxy-2-hydroxy-3-(2-(β-amino)acetoxy)cyclohexyl]phenyl-(3-(3,4-dimethoxy)phenyl)propanone hydrochloride monohydrate]
inhibition at 10 µM (IL-1; [4]): 51%

COc1cc(O)c(C(=O)/C=C/c2cccc(Br)c2)c(OC)c1[C@@H]1CCCC[C@H]1O (racemic) [Compound 17 of Table 2, trans-(+/-)-2-[2,6-Dimethoxy-4-hydroxy-3-(3-(3-bromophenyl))prop-2-(E)-enoyl]phenylcyclohexanol]
IL-1 Rel. Inhib. (IL-1; 10.8 μM): 71%

COc1cc(OC)c([C@@H]2CCCC[C@H]2O)c(O)c1C(=O)/C=C/c1cccc(N)c1 (relative stereo) [Compound 28 of Table 2]
inhibition at 1 µM (IL-1; [4]): 33%

COc1cc(/C=C/C(=O)c2c(OC)cc(OC)c([C@@H]3CCCC[C@H]3O)c2O)cc(Br)c1OC (relative stereo) [Compound 26 of Table 2]
inhibition at 9.5 µM (IL-1; Homo sapiens, 9.5 μM, read-out: IL-1 Rel. Inhib.): 50%

COc1ccc([C@@H]2CCCC[C@H]2O)c(O)c1C(=O)/C=C/c1cccc(Br)c1.COc1ccc([C@@H]2CCCC[C@H]2O)c(O)c1C(=O)/C=C/c1cccc(Br)c1.O (racemic) [Compound 18 of Table 2, trans-(+/-)-2-[2-Hydroxy-4-methoxy-3-(3-(3-bromophenyl))prop-2-(E)-enoyl)phenylcyclohexanol hemihydrate]
IL-1 Rel. Inhib. (IL-1; 5 μM): 71%

COc1cc(OC)c(C2CCCCC2)c(O)c1C(=O)/C=C/c1ccc(Cl)cc1 [Compound 22 of Table 2]
inhibition at 12 µM (IL-1; Homo sapiens, 12 μM, read-out: IL-1 Rel. Inhib.): 30%

COc1cc(OC)c([C@@H]2CCCC[C@H]2OC(=O)CN2CCCCC2)c(O)c1C(=O)/C=C/c1cccc(Br)c1 (relative stereo) [Compound 4 of Table 2]
inhibition at 16 µM (IL-1; Homo sapiens, 16 μM, read-out: IL-1 Rel. Inhib.): 43%

COc1cc(OC)c([C@@H]2CCCC[C@H]2O)c(O)c1C(=O)/C=C/c1cc(C)ccc1C (relative stereo) [Compound 21 of Table 2, trans-(+/-)-2-[4,6-Dimethoxy-2-hydroxy-3-(3-(2,5-dimethylphenyl))prop-2-(E)-enoyl]phenylcyclohexanol monohydrate]
inhibition at 10 µM (IL-1; [4]): 96%

COc1cc(OC)c([C@@H]2CCCC[C@H]2OC(=O)CN)c(O)c1C(=O)/C=C/c1cccc(Br)c1 (relative stereo) [Compound 3 of Table 2, trans-(+/-)-2-[4,6-Dimethoxy-2-hydroxy-3-(3-(3-bromophenyl)prop-2-(E)-enoyl)phenyl]cyclohexyl-2-amino acetate hydrochloride monohydrate]
inhibition at 17 µM (IL-1; [4]): 63%
